Laboratory results published in PubChem BioAssay (NCI).
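Method: 48-hour compound exposure of cells in 96-well plates, five concentrations, linear interpolation of endpoints. GI50 is the concentration that inhibits growth by half. TGI denotes the concentration required for complete inhibition of growth.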 Where a SMILES comes first, the peptide text is derived from it. The star is where a group is joined. Trt = c1ccc(C(c2ccccc2)(c2ccccc2)*)cc1; Cbz = O=C(OCc1ccccc1)*

Key:
Assay in all cases: growth of human tumour cells (NCI), 48 h
SNB-19 CNS = system: SNB-19 CNS
SN12C renal = system: SN12C renal
SF-268 CNS = system: SF-268 CNS
UACC-257 melanoma = system: UACC-257 melanoma
HOP-62 NSCLC = system: HOP-62 NSCLC
HCC-2998 colon = system: HCC-2998 colon
SW-620 colon = system: SW-620 colon
SF-539 CNS = system: SF-539 CNS

Row | Compound | TGI (SNB-19 CNS) | TGI (SN12C renal) | TGI (SF-268 CNS) | TGI (UACC-257 melanoma) | TGI (HOP-62 NSCLC) | TGI (HCC-2998 colon) | TGI (SW-620 colon) | TGI (SF-539 CNS) | GI50 (SNB-19 CNS) | GI50 (SN12C renal) | GI50 (SF-268 CNS) | GI50 (UACC-257 melanoma) | GI50 (HOP-62 NSCLC) | GI50 (SW-620 colon) | GI50 (SF-539 CNS) | GI50 (HCC-2998 colon)
1 | Cc1ccc(CNc2ccc(Br)cc2)cc1 | > 100 µM | > 100 µM | > 100 µM | > 100 µM | > 100 µM | 66 µM | > 100 µM | > 100 µM | – | – | – | – | – | – | – | –
2 | CCOC(=O)c1c(-c2ccccc2)[n+](=O)c2cc(Cl)c(Cl)cc2n1[O-] | 35.1 µM | 22.2 µM | 33.9 µM | 8.41 µM | 18.9 µM | – | 37.1 µM | 32 µM | 17.7 µM | 3.03 µM | 16.6 µM | 2.61 µM | 4.06 µM | 16.5 µM | 15.5 µM | –
3 | COc1cc2c(c(OC)c1OC)-c1ccc(NN(C(=O)c3ccccc3)C(=O)c3ccccc3)c(=O)cc1[C@@H](NC(C)=O)CC2 (tested in a mixture with another compound) | > 100 µM | > 100 µM | > 100 µM | 62.9 µM | 30.3 µM | 12.7 µM | 15.3 µM | 10.5 µM | 6.7 µM | 5.38 µM | 4.61 µM | 14.4 µM | 4.54 µM | 3.73 µM | 3.08 µM | 3.23 µM
4 | COc1cc(-c2cc(/C=C/C(=O)c3ccc(F)c(F)c3)[nH]n2)cc(OC)c1OC | > 100 µM | 25.5 µM | > 100 µM | 6.28 µM | > 100 µM | 34.1 µM | > 100 µM | 17.7 µM | 3.64 µM | 3.37 µM | 3.15 µM | 1.75 µM | 4.39 µM | 3.42 µM | 3.76 µM | 3.69 µM
5 | CO[C@H]1C[C@@H]2CC[C@@H](C)[C@@](O)(O2)C(=O)C(=O)N2CCCC[C@H]2C(=O)O[C@H]([C@H](C)C[C@@H]2CC[C@@H](OC(=O)C(C)(CO)CO)[C@H](OC)C2)CC(=O)[C@H](C)/C=C(\C)[C@@H](O)[C@@H](OC)C(=O)[C@H](C)C[C@H](C)\C=C/C=C/C=C/1C | > 10 µM | > 10 µM | > 10 µM | > 10 µM | > 10 µM | > 10 µM | > 10 µM | > 10 µM | – | > 10 µM | – | > 10 µM | 0.0147 µM | > 10 µM | 0.00576 µM | –
6 | CCCn1c2c(c3ccccc3c1=O)C(=O)c1ccccc1-2 | > 100 µM | > 100 µM | > 100 µM | > 100 µM | > 79.6 µM | > 100 µM | > 100 µM | > 100 µM | – | – | – | – | – | – | – | –
7 | COC(=O)C(CO)NC(=O)C(CSC(c1ccccc1)(c1ccccc1)c1ccccc1)NC(=O)OCc1ccccc1 (configuration not stated) (Cbz-Cys(Trt)-Ser-OMe; configuration not given here) | 50.7 µM | 27.3 µM | 44.9 µM | 25.6 µM | 46.5 µM | 29 µM | 32.4 µM | 26.3 µM | – | – | – | – | – | – | – | –
8 | O=C1/C(=C/c2ccc(Cl)c(Cl)c2)CN(C(=O)C(Cl)Cl)C/C1=C\c1ccc(Cl)c(Cl)c1 | 0.306 µM | 0.461 µM | 1.14 µM | 2.24 µM | 0.972 µM | 0.355 µM | 0.196 µM | 0.444 µM | 0.11 µM | 0.139 µM | 0.243 µM | 0.666 µM | 0.271 µM | 0.0364 µM | 0.184 µM | 0.181 µM
9 | C/C(=N\O)c1ccc2ccc3ccccc3c2c1 | > 100 µM | > 100 µM | > 100 µM | 53.4 µM | > 100 µM | – | > 100 µM | 38.8 µM | – | – | – | – | – | – | – | –
10 | CCCCN(CCCC)C(=O)[C@H](CC)[C@@H]1CC[C@@H](C)[C@@H]([C@H](C)[C@@H](O)[C@@H](C)C(=O)[C@H](CC)C2O[C@]3(C=C[C@@H](O)[C@]4(CC[C@@](C)([C@H]5CC[C@](O)(CC)[C@H](C)O5)O4)O3)[C@H](C)C[C@@H]2C)O1 (some centres not stated) | > 100 µM | 7.34 µM | > 100 µM | 9.71 µM | 27.4 µM | 5.04 µM | 11.1 µM | 4.2 µM | 3.46 µM | 2.13 µM | 3.17 µM | 2.9 µM | 3.79 µM | 2.75 µM | 1.88 µM | 2.01 µM
11 | N#CCn1c(=O)c(Oc2ccc(F)cc2F)cc2cnc(NC3CCOCC3)nc21 | > 25 µM | > 25 µM | > 25 µM | > 25 µM | > 25 µM | > 25 µM | > 25 µM | > 25 µM | > 25 µM | > 25 µM | > 25 µM | > 25 µM | > 25 µM | > 25 µM | > 25 µM | > 25 µM
12 | COc1cnc2c(c1)C(=O)c1c-2n(CCCNC2=NCCS2)c(=O)c2cc(F)ccc12 | 2.61 µM | 12.3 µM | 2.58 µM | 20.4 µM | 2.6 µM | 28.6 µM | 3.34 µM | 1.09 µM | 0.15 µM | 0.238 µM | 0.135 µM | 0.456 µM | 0.0595 µM | 0.12 µM | 0.305 µM | 12.8 µM
13 | CN=C(N)c1ccc(N=C(N)c2ccc(-c3ccc(C(N)=Nc4ccc(C(N)=NC)cc4)cc3)cc2)cc1 | > 100 µM | > 100 µM | > 100 µM | > 100 µM | > 100 µM | > 100 µM | > 100 µM | > 100 µM | > 100 µM | > 100 µM | > 100 µM | > 100 µM | > 100 µM | > 100 µM | > 100 µM | > 100 µM
14 | Cc1cc(=O)oc2ccc(OC/C=C3\CCC(=O)O3)cc12 | 30.8 µM | 31.4 µM | 43.6 µM | 28.7 µM | 29.9 µM | 28.1 µM | 17.5 µM | 25.5 µM | 13 µM | 13.5 µM | 13.2 µM | 12.3 µM | 13.5 µM | 3.87 µM | 7.95 µM | 14.7 µM
15 | NS(=O)(=O)c1ccc(Nc2cc(-c3ccc(O)c(F)c3)[nH]n2)cc1 | > 25 µM | > 25 µM | > 25 µM | > 25 µM | > 25 µM | > 25 µM | > 25 µM | > 25 µM | > 25 µM | > 25 µM | 10.3 µM | > 25 µM | > 25 µM | > 25 µM | 13.5 µM | > 25 µM
